Target: T1, human TLR7 (Homo sapiens, UniProt Q9NYK1)
T1 construct: host or cells: HEK293 (HEK-Blue hTLR7)
T1 sequence (Q9NYK1 27-1049): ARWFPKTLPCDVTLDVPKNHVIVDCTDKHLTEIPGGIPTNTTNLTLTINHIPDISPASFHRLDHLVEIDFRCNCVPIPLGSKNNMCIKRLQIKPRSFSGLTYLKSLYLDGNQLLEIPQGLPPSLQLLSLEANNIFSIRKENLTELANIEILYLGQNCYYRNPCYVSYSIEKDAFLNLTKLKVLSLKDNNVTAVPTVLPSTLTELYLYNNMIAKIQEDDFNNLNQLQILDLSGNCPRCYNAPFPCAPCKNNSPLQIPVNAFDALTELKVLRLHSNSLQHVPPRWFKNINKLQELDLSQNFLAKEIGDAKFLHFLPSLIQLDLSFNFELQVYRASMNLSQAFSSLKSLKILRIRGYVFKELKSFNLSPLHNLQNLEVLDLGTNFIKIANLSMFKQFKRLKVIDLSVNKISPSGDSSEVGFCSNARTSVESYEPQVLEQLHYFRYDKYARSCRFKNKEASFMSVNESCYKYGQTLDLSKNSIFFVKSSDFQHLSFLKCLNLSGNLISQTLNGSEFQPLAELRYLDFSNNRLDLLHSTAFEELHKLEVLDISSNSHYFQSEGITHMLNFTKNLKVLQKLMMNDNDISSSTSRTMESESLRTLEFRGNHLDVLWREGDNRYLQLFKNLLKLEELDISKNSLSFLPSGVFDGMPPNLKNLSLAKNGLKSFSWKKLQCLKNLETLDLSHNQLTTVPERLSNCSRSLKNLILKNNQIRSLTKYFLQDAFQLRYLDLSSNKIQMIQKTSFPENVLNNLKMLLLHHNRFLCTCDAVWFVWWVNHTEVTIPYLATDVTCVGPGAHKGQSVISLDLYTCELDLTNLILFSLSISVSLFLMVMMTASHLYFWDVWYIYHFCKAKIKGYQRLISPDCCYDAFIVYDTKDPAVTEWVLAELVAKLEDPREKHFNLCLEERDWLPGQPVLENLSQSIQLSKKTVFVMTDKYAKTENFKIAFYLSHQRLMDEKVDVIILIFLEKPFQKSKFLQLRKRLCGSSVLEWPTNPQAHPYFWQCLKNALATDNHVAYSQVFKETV
Test: HEK293-Blue-hTLR-7 cells assay (SEAP reporter, R848 stimulation)
Format: cell-based
Settings: HEK293-Blue-hTLR7 cells, R848, 20 hrs; read-out: HEK/hTLR7 IC50
Excerpt: HEK293-Blue-hTLR-7 Cells Assay:
A stable HEK293-Blue-hTLR-7 cell line was purchased from InvivoGen (Cat. #: hkb-ht1r7, San Diego, Calif., USA). These cells were originally designed for studying the stimulation of human TLR7 by monitoring the activation of NF-κB. A SEAP (secreted embryonic alkaline phosphatase) reporter gene was placed under the control of the IFN-β minimal promoter fused to five NF-κB and AP-1-binding sites. The SEAP was induced by activating NF-κB and AP-1 via stimulating HEK-Blue hTLR7 cells with TLR7 ligands. Therefore the reporter expression was declined by TLR7 antagonist under the stimulation of a ligand, such as R848 (Resiquimod), for incubation of 20 hrs. The cell culture supernatant SEAP reporter activity was determined using QUANTI-Blue™ kit (Cat. #: rep-qb1, Invivogen, San Diego, Ca, USA) at a wavelength of 640 nm, a detection medium that turns purple or blue in the presence of alkaline phosphatase.
HEK293-Blue-hTLR7 cells were incubated at a density of […] cells/mL in a volume of 170 μL in a 96-well plate in Dulbecco's Modified Eagle's medium (DMEM) containing 4.5 g/L glucose, 50 U/mL penicillin, […], […], 2 mM L-glutamine, 10% (v/v) heat-inactivated fetal bovine serum with addition of 20 μL test compound in a serial dilution in the presence of final DMSO at 1% and 10 μL of 20 uM R848 in above DMEM, perform incubation under 37° C. in a CO2 incubator for 20 hrs. Then 20 μL of the supernatant from each well was incubated with 180 μL Quanti-blue substrate solution at 37° C. for 2 hrs and the absorbance was read at 620˜655 nm using a spectrophotometer. The signaling pathway that TLR7 activation leads to downstream NF-κB activation has been widely accepted, and therefore similar reporter assay was modified for evaluating TLR7 antagonist.

IC50 [nM] | SMILES
12 | COC1CN(c2nccc(N3CCN(C[C@H]4CN(c5ccc(C#N)c6ncccc56)C[C@@H](C)O4)CC3)n2)CC1N (stereo in doubt) [Example 93, 5-[(2S,6R)-2-[[4-[2-[(3R,4S)-3-amino-4-methoxy-pyrrolidin-1-yl]pyrimidin-4-yl]piperazin-1-yl]methyl]-6-methyl-morpholin-4-yl]quinoline-8-carbonitrile]
54 | C[C@@H]1CN(c2ccc(C#N)c3ncccc23)C[C@H](CN2CCN(c3ccc(CN)cc3)CC2)O1 [Example 5, 5-[(2S,6R)-2-[[4-[4-(aminomethyl)phenyl]piperazin-1-yl]methyl]-6-methyl-morpholin-4-yl]quinoline-8-carbonitrile]
51 | C[C@@H]1CN(c2ccc(C#N)c3ncccc23)C[C@H](CN2CCN(c3cnc(N4CCNCC4)cn3)CC2)O1 [Example 6, 5-[(2R,6S)-2-methyl-6-[[4-(5-piperazin-1-ylpyrazin-2-yl)piperazin-1-yl]methyl]morpholin-4-yl]quinoline-8-carbonitrile]
13 | COc1cc(N2CCN(C[C@H]3CN(c4ccc(C#N)c5ncccc45)C[C@@H](C)O3)CC2)nc(N2CCNCC2)n1 [Example 91, 5-[(2S,6R)-2-[[4-(6-methoxy-2-piperazin-1-yl-pyrimidin-4-yl)piperazin-1-yl]methyl]-6-methyl-morpholin-4-yl]quinoline-8-carbonitrile]
5 | CO[C@@H]1CN(c2nccc(N3CCN(C[C@H]4CN(c5ccc(C#N)c6ncccc56)C[C@@H](C)O4)CC3)n2)C[C@@H]1N [Example 92, 5-[(2S,6R)-2-[[4-[2-[(3S,4R)-3-amino-4-methoxy-pyrrolidin-1-yl]pyrimidin-4-yl]piperazin-1-yl]methyl]-6-methyl-morpholin-4-yl]quinoline-8-carbonitrile]
13 | C[C@@H]1CN(c2ccc(C#N)c3ncccc23)C[C@H](CN2CCN(c3ncc(F)c(N4CCNCC4)n3)CC2)O1 [Example 94, 5-[(2S,6R)-2-[[4-(5-fluoro-4-piperazin-1-yl-pyrimidin-2-yl)piperazin-1-yl]methyl]-6-methyl-morpholin-4-yl]quinoline-8-carbonitrile]
7 | C[C@@H]1CN(c2ccc(C#N)c3ncccc23)C[C@H](CN2CCN(c3ccnc(N4C[C@@H](F)[C@@H](N)C4)n3)CC2)O1 [Example 95, 5-[(2S,6R)-2-[[4-[2-[(3S,4R)-3-amino-4-fluoro-pyrrolidin-1-yl]pyrimidin-4-yl]piperazin-1-yl]methyl]-6-methyl-morpholin-4-yl]quinoline-8-carbonitrile]
18 | C[C@@H]1CN(c2ccc(C#N)c3ncccc23)C[C@H](CN2CCN(c3ccnc(N4C[C@@H](N)[C@H](F)C4)n3)CC2)O1 [Example 96, 5-[(2S,6R)-2-[[4-[2-[(3R,4R)-3-amino-4-fluoro-pyrrolidin-1-yl]pyrimidin-4-yl]piperazin-1-yl]methyl]-6-methyl-morpholin-4-yl]quinoline-8-carbonitrile]
27 | CO[C@H]1CN(c2ccnc(N3CCN(C[C@H]4CN(c5ccc(C#N)c6ncccc56)C[C@@H](C)O4)CC3)n2)C[C@@H]1N [Example 97, 5-[(2S,6R)-2-[[4-[4-[(3S,4S)-3-amino-4-methoxy-pyrrolidin-1-yl]pyrimidin-2-yl]piperazin-1-yl]methyl]-6-methyl-morpholin-4-yl]quinoline-8-carbonitrile]
6 | CO[C@@H]1CN(c2nccc(N3CCN(C[C@H]4CN(c5ccc(C#N)c6nccnc56)C[C@@H](C)O4)CC3)n2)C[C@H]1N [Example 98, 8-[(2S,6R)-2-[[4-[2-[(3R,4R)-3-amino-4-methoxy-pyrrolidin-1-yl]pyrimidin-4-yl]piperazin-1-yl]methyl]-6-methyl-morpholin-4-yl]quinoxaline-5-carbonitrile]
11 | CO[C@H]1CN(c2nccc(N3CCN(C[C@H]4CN(c5ccc(C#N)c6nccnc56)C[C@@H](C)O4)CC3)n2)C[C@@H]1N [Example 99, 8-[(2S,6R)-2-[[4-[2-[(3S,4S)-3-amino-4-methoxy-pyrrolidin-1-yl]pyrimidin-4-yl]piperazin-1-yl]methyl]-6-methyl-morpholin-4-yl]quinoxaline-5-carbonitrile]
11 | C[C@@H]1CN(c2ccc(C#N)c3ncccc23)C[C@H](CN2CCN(c3ccnc(N4C[C@@H](N)[C@@H](F)C4)n3)CC2)O1 [Example 101, 5-[(2S,6R)-2-[[4-[2-[(3R,4S)-3-amino-4-fluoro-pyrrolidin-1-yl]pyrimidin-4-yl]piperazin-1-yl]methyl]-6-methyl-morpholin-4-yl]quinoline-8-carbonitrile]
18 | Cc1cnc(N2CCN(C[C@H]3CN(c4ccc(C#N)c5ncccc45)C[C@@H](C)O3)CC2)nc1N1CCNCC1 [Example 102, 5-[(2R,6S)-2-methyl-6-[[4-(5-methyl-4-piperazin-1-yl-pyrimidin-2-yl)piperazin-1-yl]methyl]morpholin-4-yl]quinoline-8-carbonitrile]
10 | C[C@@H]1CN(c2ccc(C#N)c3ncccc23)C[C@H](CN2CCN(c3ccnc(N4C[C@H]5NCCO[C@@H]5C4)n3)CC2)O1 [Example 103, 5-[(2S,6R)-2-[[4-[2-[(4aR,7aR)-3,4,4a,5,7,7a-hexahydro-2H-pyrrolo[3,4-b][1,4]oxazin-6-yl]pyrimidin-4-yl]piperazin-1-yl]methyl]-6-methyl-morpholin-4-yl]quinoline-8-carbonitrile]
5 | C[C@@H]1CN(c2ccc(C#N)c3nccnc23)C[C@H](CN2CCN(c3ccnc(N4C[C@@H](N)[C@@H](F)C4)n3)CC2)O1 [Example 108, 8-[(2S,6R)-2-[[4-[2-[(3R,4S)-3-amino-4-fluoro-pyrrolidin-1-yl]pyrimidin-4-yl]piperazin-1-yl]methyl]-6-methyl-morpholin-4-yl]quinoxaline-5-carbonitrile]
16 | COC1CCN(c2nccc(N3CCN(C[C@H]4CN(c5ccc(C#N)c6ncccc56)C[C@@H](C)O4)CC3)n2)CC1N (stereo partly drawn) [Example 109, 5-[(2S,6R)-2-[[4-[2-(3-amino-4-methoxy-1-piperidyl)pyrimidin-4-yl]piperazin-1-yl]methyl]-6-methyl-morpholin-4-yl]quinoline-8-carbonitrile]
3 | C[C@@H]1CN(c2ccc(C#N)c3nccnc23)C[C@H](CN2CCN(c3ccnc(N4CC[C@H](N)[C@H](F)C4)n3)CC2)O1 [Example 111, 8-[(2S,6R)-2-[[4-[2-[(3R,4S)-4-amino-3-fluoro-1-piperidyl]pyrimidin-4-yl]piperazin-1-yl]methyl]-6-methyl-morpholin-4-yl]quinoxaline-5-carbonitrile]
8 | C[C@@H]1CN(c2ccc(C#N)c3nccnc23)C[C@H](CN2CCN(c3ccnc(N4CC[C@@H](N)[C@H](F)C4)n3)CC2)O1 [Example 113, 8-[(2S,6R)-2-[[4-[2-[(3R,4R)-4-amino-3-fluoro-1-piperidyl]pyrimidin-4-yl]piperazin-1-yl]methyl]-6-methyl-morpholin-4-yl]quinoxaline-5-carbonitrile]
4 | Cc1cc(N2C[C@@H](N)[C@@H](F)C2)nc(N2CCN(C[C@H]3CN(c4ccc(C#N)c5nccnc45)C[C@@H](C)O3)CC2)n1 [Example 115, 8-[(2S,6R)-2-[[4-[4-[(3R,4S)-3-amino-4-fluoro-pyrrolidin-1-yl]-6-methyl-pyrimidin-2-yl]piperazin-1-yl]methyl]-6-methyl-morpholin-4-yl]quinoxaline-5-carbonitrile]

Source: patent US20210395239A1 (Hoffmann-La Roche Inc., priority 2018, published 2021)
